Laboratory results published in ChEMBL document CHEMBL1147199, “Exploration of the correlation between the structure, hemolytic activity, and cytotoxicity of steroid saponins” (Bioorg Med Chem, 2007).

assay: Cytotoxicity against human erythrocytes assessed as hemolytic activity after 60 mins; format: cell-based, Erythrocyte; settings: read-out: HD50

First: C[C@@H]1CC[C@@]2(OC1)O[C@H]1C[C@H]3[C@@H]4CC=C5C[C@@H](O[C@@H]6O[C@H](CNC(=O)c7ccc([N+](=O)[O-])cc7)[C@@H](O[C@H]7O[C@H](C)[C@@H](O)[C@H](O)[C@@H]7O)[C@H](O)[C@H]6O[C@H]6O[C@H](C)[C@@H](O)[C@H](O)[C@@H]6O)CC[C@]5(C)[C@H]4CC[C@]3(C)[C@H]1[C@@H]2C
Second: C[C@@H]1CC[C@@]2(OC1)O[C@H]1C[C@H]3[C@@H]4CC=C5C[C@@H](O[C@@H]6O[C@H](CNC(=O)c7ccccc7I)[C@@H](O[C@H]7O[C@H](C)[C@@H](O)[C@H](O)[C@@H]7O)[C@H](O)[C@H]6O[C@H]6O[C@H](C)[C@@H](O)[C@H](O)[C@@H]6O)CC[C@]5(C)[C@H]4CC[C@]3(C)[C@H]1[C@@H]2C
The HC50 at 1 h of the first is 5.3-fold higher: 39 µM for the first, 7.4 µM for the second.

`C[C@@H]1CC[C@@]2(OC1)O[C@H]1C[C@H]3[C@@H]4CC[C@H]5C[C@@H](O[C@@H]6O[C@H](CO)[C@H](O[C@H]7O[C@H](C)[C@@H](O)[C@H](O)[C@@H]7O)[C@H](O)[C@H]6O[C@@H]6O[C@@H](C)[C@H](O)[C@@H](O)[C@H]6O)[C@H](O)C[C@]5(C)[C@H]4CC[C@]3(C)[C@H]1[C@@H]2C` and `C[C@@H]1CC[C@@]2(OC1)O[C@H]1C[C@H]3[C@@H]4CC[C@H]5C[C@@H](O[C@@H]6O[C@H](CO)[C@H](O)[C@H](O)[C@H]6O[C@H]6O[C@H](C)[C@@H](O)[C@H](O)[C@@H]6O)[C@H](O)C[C@]5(C)[C@H]4CC[C@]3(C)[C@H]1[C@@H]2C` are within 1.5-fold of each other in HC50 at 1 h: 9.6 µM for the first, 7.5 µM for the second.

Compared with `C/C=C/C=C/C(=O)NCCO[C@H]1[C@H](O)[C@H](O)[C@@H](O[C@H]2[C@H](O)[C@@H](O[C@H]3O[C@H](C)[C@@H](O)[C@H](O)[C@@H]3O)[C@H](O[C@H]3CC[C@@]4(C)C(=CC[C@H]5[C@@H]6C[C@@H]7O[C@]8(CC[C@@H](C)CO8)[C@@H](C)[C@@H]7[C@@]6(C)CC[C@@H]54)C3)O[C@@H]2CO)O[C@@H]1C`, `C/C=C/C=C/C(=O)NC[C@H]1O[C@@H](O[C@H]2CC[C@@]3(C)C(=CC[C@H]4[C@@H]5C[C@@H]6O[C@]7(CC[C@@H](C)CO7)[C@@H](C)[C@@H]6[C@@]5(C)CC[C@@H]43)C2)[C@H](O[C@H]2O[C@H](C)[C@@H](O)[C@H](O)[C@@H]2O)[C@@H](O)[C@@H]1O[C@H]1O[C@H](C)[C@@H](O)[C@H](O)[C@@H]1O` is 5.8-fold higher in HC50 at 1 h: 1.6 µM for the first, 9.3 µM for the second.

First: C[C@@H]1CC[C@@]2(OC1)O[C@H]1C[C@H]3[C@@H]4CC=C5C[C@@H](O[C@@H]6O[C@H](CO)[C@@H](O[C@H]7O[C@H](C)[C@@H](OCCNC(=O)C(F)(F)F)[C@H](O)[C@@H]7O)[C@H](O)[C@H]6O[C@H]6O[C@H](C)[C@@H](O)[C@H](O)[C@@H]6O)CC[C@]5(C)[C@H]4CC[C@]3(C)[C@H]1[C@@H]2C
Second: CC(=O)O[C@H]1[C@H](O)[C@H](O)[C@@H](O[C@H]2[C@H](O)[C@@H](O[C@H]3O[C@H](C)[C@@H](O)[C@H](O)[C@@H]3O)[C@H](O[C@H]3CC[C@@]4(C)C(=CC[C@H]5[C@@H]6C[C@@H]7O[C@]8(CC[C@@H](C)CO8)[C@@H](C)[C@@H]7[C@@]6(C)CC[C@@H]54)C3)O[C@@H]2CO)O[C@@H]1C
The HC50 at 1 h of the first is 1.8-fold higher: 5.7 µM for the first, 3.2 µM for the second.

Compared with `C[C@@H]1CC[C@@]2(OC1)O[C@H]1C[C@H]3[C@@H]4CC=C5C[C@@H](O[C@@H]6O[C@H](CNC(=O)/C=C/c7ccccc7)[C@@H](O[C@H]7O[C@H](C)[C@@H](O)[C@H](O)[C@@H]7O)[C@H](O)[C@H]6O[C@H]6O[C@H](C)[C@@H](O)[C@H](O)[C@@H]6O)CC[C@]5(C)[C@H]4CC[C@]3(C)[C@H]1[C@@H]2C`, `C[C@@H]1CC[C@@]2(OC1)O[C@H]1C[C@H]3[C@@H]4CC=C5C[C@@H](O[C@@H]6O[C@H](CO)[C@@H](O[C@@H]7O[C@@H](C)[C@H](O)[C@@H](O)[C@H]7O)[C@H](O)[C@H]6O[C@@H]6O[C@@H](C)[C@H](O)[C@@H](O)[C@H]6O)CC[C@]5(C)[C@H]4CC[C@]3(C)[C@H]1[C@@H]2C` [DIOSCIN] is 1.7-fold lower in HC50 at 1 h: 11.8 µM for the first, 6.8 µM for the second.

Going from `CCCCCC(=O)O[C@H]1C[C@@H]2[C@H](CC[C@]3(C)[C@@H]4[C@H](C[C@@H]23)O[C@]2(CC[C@@H](C)CO2)[C@H]4C)[C@@]2(C)C[C@@H](O)[C@H](O[C@@H]3O[C@H](CO)[C@@H](O[C@H]4O[C@H](C)[C@@H](O)[C@H](O)[C@@H]4O)[C@H](O)[C@H]3O[C@H]3O[C@H](C)[C@@H](O)[C@H](O)[C@@H]3O)C[C@H]12` to `C=CCCCCCCCCC(=O)NCCO[C@H]1[C@H](O)[C@H](O)[C@@H](O[C@H]2[C@H](O)[C@@H](O[C@H]3O[C@H](C)[C@@H](O)[C@H](O)[C@@H]3O)[C@H](O[C@H]3CC[C@@]4(C)C(=CC[C@H]5[C@@H]6C[C@@H]7O[C@]8(CC[C@@H](C)CO8)[C@@H](C)[C@@H]7[C@@]6(C)CC[C@@H]54)C3)O[C@@H]2CO)O[C@@H]1C`, the HC50 at 1 h falls from 7.6 µM to 3.8 µM (2-fold).

First: C[C@@H]1CC[C@@]2(OC1)O[C@H]1C[C@H]3[C@@H]4CC=C5C[C@@H](O[C@@H]6O[C@H](CO)[C@@H](O[C@H]7O[C@H](C)[C@@H](OCCNC(=O)OCC8c9ccccc9-c9ccccc98)[C@H](O)[C@@H]7O)[C@H](O)[C@H]6O[C@H]6O[C@H](C)[C@@H](O)[C@H](O)[C@@H]6O)CC[C@]5(C)[C@H]4CC[C@]3(C)[C@H]1[C@@H]2C
Second: CC(=O)O[C@@H]1[C@@H](O)[C@@H](O)[C@H](O[C@H]2[C@H](O)[C@@H](O)[C@H](O[C@H]3CC[C@@]4(C)C(=CC[C@H]5[C@@H]6C[C@@H]7O[C@]8(CC[C@@H](C)CO8)[C@@H](C)[C@@H]7[C@@]6(C)CC[C@@H]54)C3)O[C@@H]2CO)O[C@H]1C
The HC50 at 1 h of the first is 9.8-fold lower: 3 µM for the first, 29.3 µM for the second.

`CCCCCCCCCCCCCCCCCC(=O)NC[C@H]1O[C@@H](O[C@H]2CC[C@@]3(C)C(=CC[C@H]4[C@@H]5C[C@@H]6O[C@]7(CC[C@@H](C)CO7)[C@@H](C)[C@@H]6[C@@]5(C)CC[C@@H]43)C2)[C@H](O[C@H]2O[C@H](C)[C@@H](O)[C@H](O)[C@@H]2O)[C@@H](O)[C@@H]1O[C@H]1O[C@H](C)[C@@H](O)[C@H](O)[C@@H]1O` and `CCCCCCCCCCCCCCCCCC(=O)NCCO[C@H]1[C@H](O)[C@H](O)[C@@H](O[C@H]2[C@H](O)[C@@H](O[C@H]3O[C@H](C)[C@@H](O)[C@H](O)[C@@H]3O)[C@H](O[C@H]3CC[C@@]4(C)C(=CC[C@H]5[C@@H]6C[C@@H]7O[C@]8(CC[C@@H](C)CO8)[C@@H](C)[C@@H]7[C@@]6(C)CC[C@@H]54)C3)O[C@@H]2CO)O[C@@H]1C` cannot be ordered by HC50 at 1 h: > 50 µg/mL for the first, > 50 µg/mL for the second.

For `CCCCCCCCCCCCCC(=O)NCCO[C@H]1[C@H](O)[C@H](O)[C@@H](O[C@H]2[C@H](O)[C@@H](O[C@H]3O[C@H](C)[C@@H](O)[C@H](O)[C@@H]3O)[C@H](O[C@H]3CC[C@@]4(C)C(=CC[C@H]5[C@@H]6C[C@@H]7O[C@]8(CC[C@@H](C)CO8)[C@@H](C)[C@@H]7[C@@]6(C)CC[C@@H]54)C3)O[C@@H]2CO)O[C@@H]1C`, the HC50 at 1 h was > 50 µg/mL.
